Among the test systems are BT-549 breast; 786-0 renal; U251 CNS; RXF 393 renal; SF-295 CNS; SNB-19 CNS; KM12 colon; RPMI-8226 leukemia; COLO 205 colon; UO-31 renal.
What all share (assay): NCI anticancer screen, dose series, 48 h

Several values for one entry are separate records, joined by “and”; a condition that tells them apart may be missing. Equal entries are not always repeated.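 Step 1: Grow cells in 96-well plates. Step 2: Expose to compound for 48 hours at 5 concentrations. Step 3: Interpolate endpoints linearly; if unreached, use highest concentration. GI50 = concentration required for 50% inhibition of growth. TGI: concentration producing complete growth inhibition.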

In the case of `N#Cc1c2c(c(-c3cccs3)n(C3OC(CO)C(O)C(O)C3O)c1=S)CCc1ccccc1-2` (configuration not stated), the TGI in the assay with BT-549 breast, in the assay with 786-0 renal, with U251 CNS, in the assay with RXF 393 renal, with SF-295 CNS and with SNB-19 CNS was more than 100 µM throughout. Moreover, the TGI with KM12 colon, in the assay with RPMI-8226 leukemia, in the assay with COLO 205 colon and in the assay on UO-31 renal was more than 100 µM throughout. Also, the GI50 in the assay on 786-0 renal is 12.3 µM and 25.2 µM; in the assay on RPMI-8226 leukemia, 9.27 µM and > 23.7 µM.
For the compound `CC(=O)N1CCN(CCOc2ccc(C3CCN(C4=Nn5c(nnc5C(F)(F)F)CC4)CC3)cc2)CC1`, the GI50 with BT-549 breast was 26.2 µM; in the assay with 786-0 renal, 25.1 µM; in the assay with U251 CNS, 47.9 µM; with RXF 393 renal, 19.4 µM; with SF-295 CNS, 12.2 µM; in the assay with SNB-19 CNS, 22.4 µM. In addition, the GI50 is 31.5 µM in the assay with KM12 colon, 4.74 µM in the assay with RPMI-8226 leukemia, 11.5 µM in the assay with COLO 205 colon and 4.75 µM in the assay with UO-31 renal. The TGI with BT-549 breast is more than 100 µM; in the assay with 786-0 renal it was more than 100 µM; with U251 CNS, more than 100 µM; with RXF 393 renal, more than 66 µM; in the assay with SF-295 CNS, more than 85.9 µM; in the assay on SNB-19 CNS it was more than 100 µM. The TGI in the assay on KM12 colon was more than 100 µM; in the assay on RPMI-8226 leukemia it was 79.7 µM; in the assay with COLO 205 colon it was more than 70.6 µM; with UO-31 renal, more than 100 µM.
As for `O=C(CCl)Nc1cc(O)c2c(c1)C(=O)c1cccc(O)c1C2=O`, the GI50 was 1.24 µM with BT-549 breast; 1.99 µM in the assay on 786-0 renal; 1.63 µM in the assay with U251 CNS; 1.72 µM in the assay on RXF 393 renal; 2.28 µM in the assay on SF-295 CNS; 1.87 µM with SNB-19 CNS. In addition, the GI50 in the assay on KM12 colon was 1.74 µM; with RPMI-8226 leukemia, 2.17 µM; in the assay with COLO 205 colon, 1.55 µM; in the assay with UO-31 renal, 1.39 µM. The TGI was found to be 3.3 µM in the assay with BT-549 breast; 4.16 µM in the assay on 786-0 renal; 3.18 µM in the assay with U251 CNS; 3.5 µM in the assay with RXF 393 renal; 7.69 µM in the assay with SF-295 CNS; 4.15 µM in the assay on SNB-19 CNS. Besides, the TGI came out at 3.4 µM in the assay with KM12 colon, 6.39 µM in the assay on RPMI-8226 leukemia, 3.35 µM in the assay with COLO 205 colon and 2.71 µM in the assay with UO-31 renal.
Regarding `COc1ccc2c(c1)CC[C@@H]1[C@@H]2CC[C@]2(C)C=C(/C=C/C(=O)c3ccccc3)C[C@@H]12`, the GI50 with BT-549 breast was 17.3 µM; in the assay with 786-0 renal, 15.5 µM; in the assay on U251 CNS, 16.6 µM; in the assay on RXF 393 renal it was 17.5 µM; in the assay with SF-295 CNS, 17.5 µM; in the assay on SNB-19 CNS, 16.8 µM. Moreover, the GI50 is 17.7 µM with KM12 colon, 24.3 µM in the assay on RPMI-8226 leukemia, 19.7 µM in the assay on COLO 205 colon and 15.2 µM in the assay with UO-31 renal. The TGI in the assay on BT-549 breast was 32.7 µM; with 786-0 renal it was 29.1 µM; with U251 CNS it was 31.3 µM; with RXF 393 renal it was 34.5 µM; in the assay on SF-295 CNS it was 34 µM; in the assay on SNB-19 CNS, 31.5 µM. Also, the TGI with KM12 colon worked out at 39.6 µM; in the assay with RPMI-8226 leukemia, 54.4 µM; in the assay with COLO 205 colon, 40.4 µM; with UO-31 renal it was 30.1 µM.
On to `CC[C@H](NC(=O)[C@H](CS(=O)(=O)CC1CC1)N[C@@H](c1ccc(F)cc1)C(F)(F)F)C(=O)C(=O)NC1CC1`, for which the GI50 with BT-549 breast, with 786-0 renal, with U251 CNS, with RXF 393 renal, in the assay on SF-295 CNS and in the assay with SNB-19 CNS was more than 100 µM each time. Also, the GI50 with KM12 colon, with RPMI-8226 leukemia, in the assay on COLO 205 colon and with UO-31 renal was more than 100 µM throughout. Besides, the TGI in the assay with BT-549 breast, in the assay on 786-0 renal, in the assay on U251 CNS, in the assay with RXF 393 renal, with SF-295 CNS and in the assay with SNB-19 CNS was more than 100 µM in each case. Moreover, the TGI in the assay with KM12 colon, in the assay on RPMI-8226 leukemia, with COLO 205 colon and in the assay on UO-31 renal was more than 100 µM throughout.
In the case of `CO[C@H](C(=O)O)[C@@H]1Cc2cc3cc(OC4CC(OC5CC(O)C(O)C(C)O5)C(O)C(C)O4)c(C)c(O)c3c(O)c2C(=O)[C@H]1OC1CC(OC2CC(OC3CC(C)(O)C(O)C(C)O3)C(O)C(C)O2)C(O)C(C)O1` (some centres not stated), the GI50 is 0.136 µM with BT-549 breast; 0.213 µM with 786-0 renal; 0.212 µM with U251 CNS; 0.101 µM in the assay with RXF 393 renal; 0.167 µM with SF-295 CNS; 0.201 µM with SNB-19 CNS. The GI50 with KM12 colon was 0.233 µM; in the assay on RPMI-8226 leukemia, 0.16 µM; in the assay on COLO 205 colon, 0.285 µM; in the assay on UO-31 renal it was 0.637 µM. Moreover, the TGI was 1.13 µM in the assay on BT-549 breast; more than 32.5 µM in the assay with 786-0 renal; more than 32.5 µM in the assay with U251 CNS; 0.436 µM with RXF 393 renal; more than 32.5 µM in the assay with SF-295 CNS; more than 32.5 µM in the assay on SNB-19 CNS. For the same compound, the TGI with KM12 colon was 2.59 µM; with RPMI-8226 leukemia, 2.23 µM; in the assay on COLO 205 colon, 2.57 µM; with UO-31 renal it was 5.33 µM.
Take `C=CCCC(=O)N1C=CC(=O)[C@H](O)[C@@H]1/C=C/c1ccccc1`: the GI50 was 11 µM with BT-549 breast; 9.84 µM in the assay on 786-0 renal; 7.44 µM in the assay on U251 CNS; 29.9 µM in the assay with RXF 393 renal; 10.7 µM in the assay on SF-295 CNS; 17.2 µM with SNB-19 CNS. Also, the GI50 in the assay on KM12 colon was 16 µM; in the assay with RPMI-8226 leukemia, 15.6 µM; with COLO 205 colon, 10.9 µM; in the assay on UO-31 renal, 4.25 µM. Also, the TGI with BT-549 breast, in the assay with 786-0 renal, with U251 CNS, with RXF 393 renal, with SF-295 CNS and in the assay with SNB-19 CNS was more than 32.5 µM each time. Moreover, the TGI in the assay on KM12 colon, with RPMI-8226 leukemia, in the assay on COLO 205 colon and in the assay with UO-31 renal was more than 32.5 µM in each case.

The values are drawn from PubChem BioAssay (NCI).
